The record followed here is ChEMBL document CHEMBL5608186, “Design, synthesis and structure-activity relationships of novel non-ketolides: 9-Oxime clarithromycin featured with seven-to thirteen-atom-length diamine linkers at 3-OH” (Eur J Med Chem, 2024).

Assay type in all cases: functional
The subject of test [1] is Staphylococcus aureus. Description: Bactericidal activity against methicillin-resistant Staphylococcus aureus PU 20 harboring c-ermA gene incubated for 16 to 20 hrs by CLSI based broth microdilution method. To be noted: time 16-20 hrs.
For test [2], the system named is Staphylococcus aureus. Briefly: Antibacterial activity against methicillin-resistant Staphylococcus aureus PU 20 harboring c-ermA gene incubated for 16 to 20 hrs by CLSI based broth microdilution method. As to conditions: time 16-20 hrs. (In general: Dilution methods test growth across graded concentrations, often in twofold steps.)
Test [3] relates to Staphylococcus aureus. Description: Selectivity ratio of MBC for methicillin-resistant Staphylococcus aureus PU 32 harboring i-ermA gene to MIC for methicillin-resistant Staphylococcus aureus PU 32 harboring i-ermA gene.
Test [4] concerns Staphylococcus aureus. Description: Bactericidal activity against methicillin-resistant Staphylococcus aureus PU 32 harboring i-ermA gene incubated for 16 to 20 hrs by CLSI based broth microdilution method. As to conditions: time 16-20 hrs.
Test [5] concerns Staphylococcus aureus. Description: Antibacterial activity against methicillin-resistant Staphylococcus aureus PU 32 harboring i-ermA gene incubated for 16 to 20 hrs by CLSI based broth microdilution method. To be noted: time 16-20 hrs.
Test [6] deals with Streptococcus pyogenes. Briefly: Selectivity ratio of MBC for Streptococcus pyogenes 01-968 harboring i-ermB gene to MIC for Streptococcus pyogenes 01-968 harboring i-ermB gene.
Test [7] concerns Streptococcus pyogenes. Description: Bactericidal activity against Streptococcus pyogenes 01-968 harboring i-ermB gene incubated for 16 to 20 hrs by CLSI based broth microdilution method. To be noted: time 16-20 hrs.
Test [8] relates to Streptococcus pyogenes. Description: Antibacterial activity against Streptococcus pyogenes 01-968 harboring i-ermB gene incubated for 16 to 20 hrs by CLSI based broth microdilution method. As to conditions: time 16-20 hrs.
The subject of test [9] is Haemophilus influenzae. Briefly: Selectivity ratio of MBC for Haemophilus influenzae ATCC 49247 to MIC for Haemophilus influenzae ATCC 49247.
The test system of test [10] is Haemophilus influenzae. Description: Bactericidal activity against Haemophilus influenzae ATCC 49247 incubated for 16 to 20 hrs by CLSI based broth microdilution method. To be noted: time 16-20 hrs.
The test system of test [11] is Haemophilus influenzae. Description: Antibacterial activity against Haemophilus influenzae ATCC 49247 incubated for 16 to 20 hrs by CLSI based broth microdilution method. As to conditions: time 16-20 hrs.
The subject of test [12] is Streptococcus pneumoniae. Description: Selectivity ratio of MBC for Streptococcus pneumoniae 07P390 harboring c-erm gene to MIC for Streptococcus pneumoniae 07P390 harboring c-erm gene.
In test [13] the test system is Streptococcus pneumoniae. Description: Bactericidal activity against Streptococcus pneumoniae 07P390 harboring c-erm gene incubated for 16 to 20 hrs by CLSI based broth microdilution method. To be noted: time 16-20 hrs.
Test [14] concerns Streptococcus pneumoniae. Briefly: Antibacterial activity against Streptococcus pneumoniae 07P390 harboring c-erm gene incubated for 16 to 20 hrs by CLSI based broth microdilution method. To be noted: time 16-20 hrs.
Test [15] relates to Streptococcus pneumoniae. Description: Selectivity ratio of MBC for Streptococcus pneumoniae PU 09 harboring mef gene to MIC for Streptococcus pneumoniae PU 09 harboring mef gene.
In test [16] the test system is Streptococcus pneumoniae. Description: Bactericidal activity against Streptococcus pneumoniae PU 09 harboring mef gene incubated for 16 to 20 hrs by CLSI based broth microdilution method. As to conditions: time 16-20 hrs.
Test [17] relates to Streptococcus pneumoniae. Description: Selectivity ratio of MBC for Streptococcus pneumoniae ATCC 49619 to MIC for Streptococcus pneumoniae ATCC 49619.
For test [18], the system named is Streptococcus pneumoniae. Briefly: Antibacterial activity against Streptococcus pneumoniae PU 09 harboring mef gene incubated for 16 to 20 hrs by CLSI based broth microdilution method. To be noted: time 16-20 hrs.
Test [19] concerns Streptococcus pneumoniae. Briefly: Bactericidal activity against Streptococcus pneumoniae ATCC 49619 incubated for 16 to 20 hrs by CLSI based broth microdilution method. To be noted: time 16-20 hrs.
The test system of test [20] is Streptococcus pneumoniae. Briefly: Antibacterial activity against Streptococcus pneumoniae ATCC 49619 incubated for 16 to 20 hrs by CLSI based broth microdilution method. As to conditions: time 16-20 hrs.

≈ marks a conversion by molar mass, not a printed value. Some results are limits rather than exact numbers.

With `CC[C@H]1OC(=O)[C@H](C)[C@@H](OC(=O)CCNCCCCNc2cc3c(cc2F)c(=O)c(C(=O)O)cn3C2CC2)[C@H](C)[C@@H](O[C@@H]2O[C@H](C)C[C@H](N(C)C)[C@H]2O)[C@](C)(OC)C[C@@H](C)/C(=N\OCCCc2cncc(C(=O)NC)c2)[C@H](C)[C@H]2OC(=O)O[C@@]21C`, the MBC with Staphylococcus aureus [1] was over 256 µg/mL; with Staphylococcus aureus [4], 32 µg/mL (≈ 26.8 µM); in the test on Streptococcus pyogenes [7] it was over 2 µg/mL; in the test with Haemophilus influenzae [10] it was 16 µg/mL (≈ 13.4 µM); in the test with Streptococcus pneumoniae [13], 0.12 µg/mL (≈ 0.1 µM); with Streptococcus pneumoniae [16] it was 0.03 µg/mL (≈ 0.0251 µM). The MBC against Streptococcus pneumoniae [19] is 0.008 µg/mL (≈ 0.0067 µM). The MIC with Staphylococcus aureus [2] is over 256 µg/mL; with Staphylococcus aureus [5], 32 µg/mL (≈ 26.8 µM); with Streptococcus pyogenes [8], 0.25 µg/mL (≈ 0.209 µM); in the test with Haemophilus influenzae [11], 8 µg/mL (≈ 6.7 µM); against Streptococcus pneumoniae [14] it was 0.03 µg/mL (≈ 0.0251 µM); with Streptococcus pneumoniae [18], at most 0.008 µg/mL. In the test on Streptococcus pneumoniae [20], this molecule showed an MIC of at most 0.008 µg/mL. For the same molecule, the Selectivity ratio is 1 in the test with Staphylococcus aureus [3]; over 8 with Streptococcus pyogenes [6]; 2 in the test on Haemophilus influenzae [9]; 4 with Streptococcus pneumoniae [12]; “>=4” with Streptococcus pneumoniae [15]; “>=1” with Streptococcus pneumoniae [17].

With `CC[C@H]1OC(=O)[C@H](C)[C@@H](OC(=O)CCN2CCN(c3cc4c(cc3F)c(=O)c(C(=O)O)cn4C3CC3)CC2)[C@H](C)[C@@H](O[C@@H]2O[C@H](C)C[C@H](N(C)C)[C@H]2O)[C@](C)(OC)C[C@@H](C)/C(=N\OC/C=C/c2cncc(C(=O)NC)c2)[C@H](C)[C@H]2OC(=O)O[C@@]21C`, the MBC against Staphylococcus aureus [1] is over 256 µg/mL; against Staphylococcus aureus [4] it was over 256 µg/mL; with Streptococcus pyogenes [7], over 64 µg/mL; in the test on Haemophilus influenzae [10], 4 µg/mL (≈ 3.36 µM); in the test with Streptococcus pneumoniae [13], over 16 µg/mL; in the test with Streptococcus pneumoniae [16] it was 0.5 µg/mL (≈ 0.42 µM). Also, the MBC in the test with Streptococcus pneumoniae [19] is 0.06 µg/mL (≈ 0.0504 µM). Also, the MIC in the test with Staphylococcus aureus [2] was over 256 µg/mL; with Staphylococcus aureus [5] it was 64 µg/mL (≈ 53.8 µM); against Streptococcus pyogenes [8], 8 µg/mL (≈ 6.72 µM); in the test with Haemophilus influenzae [11], 4 µg/mL (≈ 3.36 µM); with Streptococcus pneumoniae [14], 2 µg/mL (≈ 1.68 µM); against Streptococcus pneumoniae [18] it was 0.12 µg/mL (≈ 0.101 µM). The molecule further had an MIC against Streptococcus pneumoniae [20] of 0.03 µg/mL (≈ 0.0252 µM). Further, the Selectivity ratio with Staphylococcus aureus [3] was over 4; with Streptococcus pyogenes [6], over 8; in the test with Haemophilus influenzae [9], 1; with Streptococcus pneumoniae [12], over 8; in the test with Streptococcus pneumoniae [15], 4; with Streptococcus pneumoniae [17], 2.

Turning to `CC[C@H]1OC(=O)[C@H](C)[C@@H](OC(=O)CCNCCCCNc2cc3c(cc2F)c(=O)c(C(=O)O)cn3C2CC2)[C@H](C)[C@@H](O[C@@H]2O[C@H](C)C[C@H](N(C)C)[C@H]2O)[C@](C)(OC)C[C@@H](C)/C(=N\OC/C=C/c2cncc(C(=O)NC)c2)[C@H](C)[C@H]2OC(=O)O[C@@]21C`, the MBC is over 256 µg/mL against Staphylococcus aureus [1]; over 256 µg/mL in the test with Staphylococcus aureus [4]; over 1 µg/mL against Streptococcus pyogenes [7]; 4 µg/mL (≈ 3.35 µM) against Haemophilus influenzae [10]; 2 µg/mL (≈ 1.68 µM) with Streptococcus pneumoniae [13]; 0.06 µg/mL (≈ 0.0503 µM) in the test with Streptococcus pneumoniae [16]. The MBC against Streptococcus pneumoniae [19] was 0.008 µg/mL (≈ 0.00671 µM). Besides, the MIC was over 256 µg/mL against Staphylococcus aureus [2]; 32 µg/mL (≈ 26.8 µM) in the test on Staphylococcus aureus [5]; 0.12 µg/mL (≈ 0.101 µM) with Streptococcus pyogenes [8]; 2 µg/mL (≈ 1.68 µM) against Haemophilus influenzae [11]; 2 µg/mL (≈ 1.68 µM) in the test with Streptococcus pneumoniae [14]; 0.06 µg/mL (≈ 0.0503 µM) with Streptococcus pneumoniae [18]. Also, the MIC against Streptococcus pneumoniae [20] was at most 0.008 µg/mL. Besides, the Selectivity ratio is reported as over 8 with Staphylococcus aureus [3]; over 8 in the test on Streptococcus pyogenes [6]; 2 in the test on Haemophilus influenzae [9]; 1 in the test on Streptococcus pneumoniae [12]; 1 in the test on Streptococcus pneumoniae [15]; “>=1” in the test with Streptococcus pneumoniae [17].
